Measurements as given in EP1561465A2, “Methods of use of fluoroquinolone compounds against bacteria” (LG Life Sciences, Ltd., priority 1999, dated 2001).
≈ marks a conversion by molar mass, not a printed value. Read-outs that look alike come from different tables or passages of the source.

How the values were obtained:
Assay type in all cases: cell-based
[1] = test system: Streptococcus pneumoniae; test: MIC by broth microdilution (NCCLS), dried MicroScan panels, clinical isolates 1998-1999; conditions: for MIC90: Streptococcus pneumoniae
[2] = test system: Staphylococcus aureus; test: MIC by agar dilution (NCCLS), 411 isolates Buenos Aires 1998-99; conditions: for MIC90: Staphylococcus aureus
[3] = test system: Enterobacter aerogenes; test: MIC by NCCLS broth microdilution, 1100 Japanese clinical isolates 1997-1998; conditions: Enterobacter aerogenes (n=35)
[4] = test system: Klebsiella pneumoniae; test: MIC by NCCLS reference broth microdilution, 450 respiratory tract pathogens; conditions: for MIC50 / MIC90: Klebsiella pneumoniae
[5] = test system: Enterobacter spp.; test: MIC by agar dilution (NCCLS), 322 nosocomial Gram negative isolates, Athens 1998; conditions: n = 57 isolates
[6] = test system: Klebsiella oxytoca; test: MIC by NCCLS broth microdilution, 1100 Japanese clinical isolates 1997-1998; conditions: Klebsiella oxytoca (n=40)
[7] = test system: Serratia marcescens; test: as above
[8] = test system: Acinetobacter spp.; test: MIC by agar dilution (NCCLS), 322 nosocomial Gram negative isolates, Athens 1998; conditions: n = 38 strains
[9] = test system: E. coli; test: microbe, parasite or virus in culture; conditions: for MIC50 / MIC: Escherichia coli
[10] = test system: Klebsiella pneumoniae; test: MIC by agar dilution (NCCLS), 322 nosocomial Gram negative isolates, Athens 1998; conditions: n = 56 isolates
[11] = test system: Klebsiella pneumoniae; test: MIC by NCCLS broth microdilution, 1100 Japanese clinical isolates 1997-1998; conditions: Klebsiella pneumoniae (n=35)
[12] = test system: Haemophilus influenzae; test: MIC by agar dilution (NCCLS), 411 isolates Buenos Aires 1998-99; conditions: Haemophilus influenzae (n = 65)
[13] = test system: P. aeruginosa; test: MIC by two-fold serial agar dilution, quinolone-resistant strains; conditions: Pseudomonas aeruginosa
[14] = test system: Salmonella spp.; test: MIC by NCCLS broth microdilution, 1100 Japanese clinical isolates 1997-1998; conditions: Salmonella spp. (n=29)
[15] = test system: Shigella spp.; test: as above; conditions: Shigella spp. (n=34)
[16] = test system: Haemophilus influenzae; test: MIC by NCCLS reference broth microdilution, 450 respiratory tract pathogens; conditions: Haemophilus influenzae; for MIC90: read-out: MIC90
[17] = test system: Gram positive anaerobic and facultative anaerobic pathogens; test: microbe, parasite or virus in culture
[18] = test system: Streptococcus pyogenes; test: MIC by agar dilution (NCCLS), 411 isolates Buenos Aires 1998-99; conditions: Streptococcus pyogenes (n = 69)
[19] = Streptococcus pneumoniae (302 isolates)
[20] = S. aureus, Methicillin resistant (n = 14)
[21] = S. aureus, Methicillin susceptible (n = 66)
[22] = extended spectrum β-lactamase negative (n = 30)
[23] = extended spectrum β-lactamase positive (n = 20)
[24] = Haemophilus influenzae (n = 100)

CO/N=C1\CN(c2nc3c(cc2F)c(=O)c(C(=O)O)cn3C2CC2)CC1CN (racemic) [Gemifloxacin, (R,S)-7-(3-aminomethyl-4-methoxyiminopyrrolidin-1-yl)-1-cyclopropyl-6-fluoro-4-oxo-1,4-dihydro-1,8-naphthyridine-3-carboxylic acid]
more active than grepafloxacin ([1]; S. pneumoniae): two-fold
more active than levofloxacin ([1]; S. pneumoniae): 16 fold
more active than trovafloxacin ([1]; S. pneumoniae): four-fold
MIC50 [1, 19]: 0.03 µg/mL (≈ 0.077 µM)
MIC Range [1, 19]: ≤0.0015 to 0.12 µg/mL
MIC90 ([1]; Erythromycin-resistant (86)): 0.03 µg/mL (≈ 0.077 µM)
MIC90 ([1]; Erythromycin-sensitive (216)): 0.06 µg/mL (≈ 0.154 µM)
MIC90 ([1]; Penicillin-intermediate (124)): 0.03 µg/mL (≈ 0.077 µM)
MIC90 ([1]; Penicillin-resistant (80)): 0.06 µg/mL (≈ 0.154 µM)
MIC90 ([1]; Penicillin-sensitive (98)): 0.06 µg/mL (≈ 0.154 µM)
MIC90 [1, 19]: 0.06 µg/mL (≈ 0.154 µM)
Resistance (%) [2, 20]: 0%
Resistance (%) [2, 21]: 0%
MIC Range ([2]; Staphylococcus aureus (n = 80)): ≤0.004 to 2 µg/mL
MIC90 [2, 20]: 2 µg/mL (≈ 5.14 µM)
MIC90 [2, 21]: 0.03 µg/mL (≈ 0.077 µM)
MIC90 ([2]; Staphylococcus aureus (n = 80)): 1 µg/mL (≈ 2.57 µM)
MIC Range [3]: 0.016 to 0.25 µg/mL
MIC50 ([3]; Klebsiella aerogenes): 0.032 µg/mL (≈ 0.0822 µM)
MIC90 ([3]; Klebsiella aerogenes): 0.063 µg/mL (≈ 0.162 µM)
MIC Range ([4]; Klebsiella pneumoniae (n = 50)): ≤0.0075 to 1 µg/mL
MIC50 ([4]; Klebsiella pneumoniae (n = 50)): 0.03 µg/mL (≈ 0.077 µM)
MIC90 ([4]; Klebsiella pneumoniae (n = 50)): 0.25 µg/mL (≈ 0.642 µM)
MIC50 [4, 22]: 0.015 µg/mL (≈ 0.0385 µM)
MIC90 [4, 22]: 0.06 µg/mL (≈ 0.154 µM)
MIC50 [4, 23]: 0.25 µg/mL (≈ 0.642 µM)
MIC90 [4, 23]: 0.5 µg/mL (≈ 1.28 µM)
MIC Range [4, 22]: ≤0.0075 to 0.12 µg/mL
MIC Range [4, 23]: 0.03 to 1 µg/mL
MIC50 ([5]; Enterobacter, read-out: MIC50): 0.06 µg/mL (≈ 0.154 µM)
MIC90 ([5]; Enterobacter, read-out: MIC90): 16 µg/mL (≈ 41.1 µM)
MIC Range [5]: ≤0.03 to 64 µg/mL
MIC50 [6]: 0.032 µg/mL (≈ 0.0822 µM)
MIC90 [6]: 4 µg/mL (≈ 10.3 µM)
MIC Range [6]: ≤0.008 to 32 µg/mL
MIC50 ([7]; Serratia marcescens): 0.125 µg/mL (≈ 0.321 µM)
MIC90 ([7]; Serratia marcescens (n=30)): 0.5 µg/mL (≈ 1.28 µM)
MIC Range ([7]; Serratia marcescens (n=30)): 0.063 to 128 µg/mL
MIC50 ([8]; Acinetobacter): 2 µg/mL (≈ 5.14 µM)
MIC90 ([8]; Acinetobacter): 32 µg/mL (≈ 82.2 µM)
MIC Range [8]: 0.06 to 32 µg/mL
MIC90 ([9]; E. coli (13 strains), quinolone-resistant): 0.25 µg/mL (≈ 0.642 µM)
MIC50 ([9]; E. coli (13 strains), quinolone-resistant, read-out: MIC50): 0.031 µg/mL (≈ 0.0796 µM)
MIC ([9]; E. coli KU1029, mutant type SP (spontaneous mutant in the DNA gyrase)): 0.031 µg/mL (≈ 0.0796 µM)
MIC ([9]; E. coli KU1030, mutant type SP): 0.031 µg/mL (≈ 0.0796 µM)
MIC ([9]; E. coli KU1031, mutant type SP): 0.031 µg/mL (≈ 0.0796 µM)
MIC ([9]; E. coli KU1032, mutant type SP): 0.125 µg/mL (≈ 0.321 µM)
MIC ([9]; E. coli KU1033, mutant type SP): 0.016 µg/mL (≈ 0.0411 µM)
MIC ([9]; E. coli KU1034, mutant type GA (DNA gyrase A)): 0.25 µg/mL (≈ 0.642 µM)
MIC ([9]; E. coli KU1035, mutant type GA (DNA gyrase A)): 0.25 µg/mL (≈ 0.642 µM)
MIC ([9]; E. coli KU1036, mutant type GB (DNA gyrase B)): 0.031 µg/mL (≈ 0.0796 µM)
MIC ([9]; E. coli KU1038, mutant type SP): 0.031 µg/mL (≈ 0.0796 µM)
MIC ([9]; E. coli KU1039, mutant type SP): 0.125 µg/mL (≈ 0.321 µM)
MIC ([9]; E. coli KU1040, mutant type SP): ≤ 0.008 µg/mL
MIC ([9]; E. coli KU1041, mutant type SP): 0.25 µg/mL (≈ 0.642 µM)
MIC ([9]; E. coli KU1042, mutant type SP): 0.063 µg/mL (≈ 0.162 µM)
MIC50 ([9]; E. coli mutated in the DNA gyrase): 0.032 µg/mL (≈ 0.0822 µM)
MIC50 ([10]; Klebsiella pneumoniae): 0.06 µg/mL (≈ 0.154 µM)
MIC90 ([10]; Klebsiella pneumoniae): 0.5 µg/mL (≈ 1.28 µM)
MIC Range [10]: ≤0.03 to 4 µg/mL
MIC50 [11]: 0.032 µg/mL (≈ 0.0822 µM)
MIC Range [11]: 0.016 to 1 µg/mL
MIC90 ([11]; read-out: MIC90): 0.063 µg/mL (≈ 0.162 µM)
MIC90 [12]: 0.008 µg/mL (≈ 0.0205 µM)
MIC Range [12]: ≤0.004 to 0.125 µg/mL
MIC [13]: 2 µg/mL (≈ 5.14 µM)
MIC50 [14]: 0.032 µg/mL (≈ 0.0822 µM)
MIC90 [14]: 0.032 µg/mL (≈ 0.0822 µM)
MIC50 [15]: ≤ 0.008 µg/mL
MIC90 [15]: 0.032 µg/mL (≈ 0.0822 µM)
MIC Range [15]: ≤0.008 to 0.032 µg/mL
MIC [16, 24]: 0.0075 to 0.06 µg/mL (≈ 0.0193 to 0.154 µM)
MIC50 [16, 24]: ≤ 0.0075 µg/mL
MIC90 [16, 24]: ≤ 0.00075 µg/mL
MIC ([16]; β-lactamase negative (n = 80)): 0.0075 to 0.015 µg/mL (≈ 0.0193 to 0.0385 µM)
MIC50 ([16]; β-lactamase negative (n = 80)): ≤ 0.0075 µg/mL
MIC90 ([16]; β-lactamase negative (n = 80)): ≤ 0.0075 µg/mL
MIC ([16]; β-lactamase positive (n = 20)): 0.0075 to 0.06 µg/mL (≈ 0.0193 to 0.154 µM)
MIC50 ([16]; β-lactamase positive (n = 20)): ≤ 0.0075 µg/mL
MIC90 ([16]; β-lactamase positive (n = 20)): 0.015 µg/mL (≈ 0.0385 µM)
MIC ([17]; Bifidobacterium adolescentis, ATCC15703): 0.25 µg/mL (≈ 0.642 µM)
MIC ([17]; Bifidobacterium bifidum, JCM1255): 2 µg/mL (≈ 5.14 µM)
MIC ([17]; Bifidobacterium breve, ATCC15700): 1 µg/mL (≈ 2.57 µM)
MIC ([17]; Bifidobacterium longum, ATCC15707): 1 µg/mL (≈ 2.57 µM)
MIC ([17]; Bifidobacterium pseudolongum, ATCC25526): 1 µg/mL (≈ 2.57 µM)
MIC ([17]; Clostridioides difficile): 2 µg/mL (≈ 5.14 µM)
MIC ([17]; Clostridium perfringens, ATCC13124): 0.06 µg/mL (≈ 0.154 µM)
MIC ([17]; Clostridium septicum, ATCC12464): 0.06 µg/mL (≈ 0.154 µM)
MIC ([17]; Cutibacterium acnes, ATCC11828): 0.25 µg/mL (≈ 0.642 µM)
MIC ([17]; Eggerthella lenta, ATCC25559): 0.25 µg/mL (≈ 0.642 µM)
MIC ([17]; Finegoldia magna, ATCC29328): ≤ 0.03 µg/mL
MIC ([17]; Gemella morbillorum, ATCC27824): 0.25 µg/mL (≈ 0.642 µM)
MIC ([17]; Lacticaseibacillus casei, JCM1134): ≤ 0.03 µg/mL
MIC ([17]; Lactiplantibacillus plantarum, JCM1149): 2 µg/mL (≈ 5.14 µM)
MIC ([17]; Lactobacillus acidophilus, JCM1132): 0.5 µg/mL (≈ 1.28 µM)
MIC ([17]; Levilactobacillus brevis, JCM1059): 0.5 µg/mL (≈ 1.28 µM)
MIC ([17]; Ligilactobacillus salivarius, JCM1231): 0.06 µg/mL (≈ 0.154 µM)
MIC ([17]; Limosilactobacillus reuteri, JCM1112): 0.25 µg/mL (≈ 0.642 µM)
MIC ([17]; Limosilactobacillus reuteri, JCM1173): 0.25 µg/mL (≈ 0.642 µM)
MIC ([17]; Paraclostridium sordellii, ATCC9714): 0.5 µg/mL (≈ 1.28 µM)
MIC ([17]; Parvimonas micra): 0.125 µg/mL (≈ 0.321 µM)
MIC ([17]; Peptoniphilus asaccharolyticus): 0.125 µg/mL (≈ 0.321 µM)
MIC ([17]; Peptoniphilus indolicus): ≤ 0.03 µg/mL
MIC ([17]; Peptostreptococcus anaerobius, ATCC27337): 0.06 µg/mL (≈ 0.154 µM)
MIC ([17]; Schaalia odontolytica): 4 µg/mL (≈ 10.3 µM)
MIC ([17]; Staphylococcus saccharolyticus, ATCC14953): ≤ 0.03 µg/mL
MIC ([17]; Streptococcus constellatus, ATCC27823): ≤ 0.03 µg/mL
MIC ([17]; Streptococcus intermedius, ATCC27335): 0.06 µg/mL (≈ 0.154 µM)
MIC ([17]; Thomasclavelia ramosa, ATCC25582): 0.5 µg/mL (≈ 1.28 µM)
MIC Range [18]: ≤0.004 to 0.125 µg/mL
MIC90 ([18]; read-out: MIC90): 0.03 µg/mL (≈ 0.077 µM)
